According to patent US7001736B1, “Pharmacogenetic methods for use in the treatment of nervous system diseases” (priority 1995, dated 2006):
Where two headings read alike, the source gives them in different places.

What was measured:
patients with AD = tested on: patients with AD
From the text: In this example we characterize patients with AD recruited for a large multi center study of tacrine and to investigate the impact of apoE allele load on short-term outcomes in placebo-treated patients, short-term Tacrine™ treatment effects, and long-term treatment outcome. The patients were classified by sex and dosage.
The 30-week study was randomized, double-blind, placebo-controlled, parallel-group clinical trial conducted at 33 centers in the USA (see Knapp, M. J. et al. JAMA 271: 985–991 (1995) for complete methodology). Patients randomized to tacrine treatment received an initial dose of 40 mg/day (10 mg QID) and were force-titrated at 6-week intervals in increments of 40 mg to maximum dose levels of 80, 120, and 160 mg/day for Groups II, III, and IV, respectively. Group I received placebo for the entire 30 weeks. The protocol was approved by Institutional Review Boards for each study center and followed guidelines of the Declaration of Helsinki and Good Clinical Practices.
Patients eligible for the 30-week study were men and women, at least 50 years of age, meeting National Institute of Neurological and Communicative Disorders and Stroke (NINCDS) criteria for a diagnosis of probable AD. […] Disease severity at the time of study entry was defined mild to moderate based on Mini-Mental State Examination. (MMSE) scores between 10 and 26 inclusive. Written informed consent was obtained from care givers and patients or their legal representatives. Medications with known central nervous system effects were prohibited during double-blind treatment. Once patients completed or terminated from the double-blind phase of the study there were no restrictions on concurrent medications. Patients who stopped tacrine treatment could take other investigational drugs.
The ADAS-Cog is an objective test that evaluates memory, language, and praxis and is a sensitive measure of patient performance (maximum severity score of […]). A decrease in score indicates improvement.
Four comparisons of tacrine 160 mg/day versus placebo were conducted: (1) without adjusting for ApoE4; (2) adjusting for the presence or absence of ApoE4; (3) for patients with Apo E4; and (4) without Apo E4. The estimated treatment differences, 95% confidence intervals for the treatment differences, and parametric p-values were computed from an analysis of variance (ANOVA) that included effects for randomized treatment group (placebo, 80 mg/day, 120 mg/day, and 160 mg/day) and study site. An analysis of covariance (ANCOVA) for ADAS-Cog also included baseline score a covariant. Least-square means were used to estimate the effect of the E4 allele on Week 30 efficacy scores.
The change in ADAS-Cog scores at Week 30 were estimated for: (1) placebo patients with an E4 allele, (2) placebo patients without an E4 allele, (3) Tacrine™ 160 mg/day patients with an E4 allele, and (4) Tacrine™ 160 mg/day patients without an E4 allele using ANCOVA that adjusted for site and baseline score. Similarly, Week 30 CIBIC and FCCA scores were estimated using ANOVA adjusted for study site effects.

AD patients = conditions: maximum dose, 40 to 160 mg/d over 30 weeks
From the text: The patients selection done on the basis of presence and absence of drug response to the treatment. The Alzheimer's Disease Assessment Scale (ADAS) used to monitor treatment effects. […] The ADAS-cog is an objective test that evaluates memory, attention, reasoning, orientation and praxis: a decrease score over time (or a positive difference) indicates improvement (Rosen W. G. et al, 1984, Am. J. Psychiatr., 141:1356 1364). The AD total includes the cognitive and non-cognitive portion of the ADAS.
Each bar represents an individual subjects. Positive delta values (difference in AD score at the end minus AD score prior to drug treatment) indicate improvement in cognitive performance (ADcog) and in global performances (ADAS-total). Negative values represent patients who deteriorated over time and drug treatment. All the subjects are AD subjects, all were treated with the same drug, at the same level, for the same duration.

Nc1c2c(nc3ccccc13)CCCC2 [Tacrine, tacrine]
response to tacrine (patients with AD; men having two E4 alleles): do not respond
% of subjects with an improvement of the ADAS-COG score by at least 5 points (patients with AD; men, Tacrine high, E4/X): 69%
% of subjects with an improvement of the ADAS-COG score by at least 5 points (patients with AD; men, Tacrine high, EX/X): 29%
% of subjects with an improvement of the ADAS-COG score by at least 5 points (patients with AD; men, Tacrine low, E4/4): 0%
% of subjects with an improvement of the ADAS-COG score by at least 5 points (patients with AD; men, Tacrine low, E4/X): 14%
% of subjects with an improvement of the ADAS-COG score by at least 5 points (patients with AD; men, Tacrine low, EX/X): 33%
% of subjects with an improvement of the ADAS-COG score by at least 5 points (patients with AD; men, Tacrine mid, E4/4): 0%
% of subjects with an improvement of the ADAS-COG score by at least 5 points (patients with AD; men, Tacrine mid, E4/X): 34%
% of subjects with an improvement of the ADAS-COG score by at least 5 points (patients with AD; men, Tacrine mid, EX/X): 0%
response to tacrine (patients with AD; women having two E4 alleles): do not respond
% of subjects with an improvement of the ADAS-COG score by at least 5 points (patients with AD; women, Tacrine high, E4/X): 20%
% of subjects with an improvement of the ADAS-COG score by at least 5 points (patients with AD; women, Tacrine high, EX/X): 43%
% of subjects with an improvement of the ADAS-COG score by at least 5 points (patients with AD; women, Tacrine low, E4/4): 0%
% of subjects with an improvement of the ADAS-COG score by at least 5 points (patients with AD; women, Tacrine low, E4/X): 20%
% of subjects with an improvement of the ADAS-COG score by at least 5 points (patients with AD; women, Tacrine mid, E4/4): 0%
% of subjects with an improvement of the ADAS-COG score by at least 5 points (patients with AD; women, Tacrine mid, E4/X): 24%
% of subjects with an improvement of the ADAS-COG score by at least 5 points (patients with AD; women, Tacrine mid, EX/X): 67%
subjects showing improvement with tacrine administration (AD total) (AD patients; apoE4 negative AD subjects): more than 85%
subjects worse following drug treatment (AD total) (AD patients; apoE4 positive AD subjects): 60%
